Test results published in a compilation of properties of binary mixtures (doi:10.1016/j.fluid.2019.112304).

Experiment: xn = mol fraction of the nth substance listed
Conditions: 101 kPa

`CCCCO` + CCCCCCCCCCCC[N+](C)(C)Cc1ccccc1.O=S(=O)([N-]S(=O)(=O)C(F)(F)F)C(F)(F)F gave a viscosity (303.15 K, x2 = 0) of 2.23 mPa·s, a viscosity (318.15 K, x2 = 0) of 1.56 mPa·s and a viscosity (323.15 K, x2 = 0) of 1.42 mPa·s. The viscosity (328.15 K, x2 = 0) was 1.27 mPa·s, the viscosity (333.15 K, x2 = 0) was 1.11 mPa·s and the viscosity (338.15 K, x2 = 0) was 1.01 mPa·s.
In the case of `c1ccsc1` + N#C[C-](C#N)C#N.OCC[n+]1ccccc1, the viscosity (293.15 K, x2 = 0) is reported as 0.653 mPa·s, the viscosity (298.15 K, x2 = 0) is reported as 0.615 mPa·s and the viscosity (308.15 K, x2 = 0) is reported as 0.545 mPa·s. For the same compound, the viscosity (313.15 K, x2 = 0) was 0.518 mPa·s, the viscosity (318.15 K, x2 = 0) was 0.491 mPa·s and the viscosity (323.15 K, x2 = 0) was 0.464 mPa·s. It also gave a viscosity (328.15 K, x2 = 0) of 0.441 mPa·s, a viscosity (338.15 K, x2 = 0) of 0.4 mPa·s and a viscosity (343.15 K, x2 = 0) of 0.382 mPa·s.
For `CCCCCCCCCCCC[N+](C)(C)Cc1ccccc1.O=S(=O)([N-]S(=O)(=O)C(F)(F)F)C(F)(F)F` + CCCCO, the viscosity (298.15 K, x1 = 0.1507) was 15.3 mPa·s, the viscosity (298.15 K, x1 = 0.3015) was 43.6 mPa·s and the viscosity (298.15 K, x1 = 0.4494) was 103 mPa·s. For the same compound, the viscosity (298.15 K, x1 = 0.594) was 208 mPa·s, the viscosity (298.15 K, x1 = 0.7485) was 505 mPa·s and the viscosity (298.15 K, x1 = 0.9164) was 1066 mPa·s. For the same compound, the viscosity (303.15 K, x1 = 0.1507) was 12.4 mPa·s, the viscosity (303.15 K, x1 = 0.4494) was 78 mPa·s and the viscosity (303.15 K, x1 = 0.594) was 153 mPa·s. The viscosity (303.15 K, x1 = 0.7485) was 362 mPa·s, the viscosity (303.15 K, x1 = 0.9164) was 748 mPa·s and the viscosity (303.15 K, x1 = 1) was 970 mPa·s. The viscosity (308.15 K, x1 = 0.1507) was 10.4 mPa·s, the viscosity (308.15 K, x1 = 0.4494) was 60.1 mPa·s and the viscosity (308.15 K, x1 = 0.594) was 115 mPa·s. For the same compound, the viscosity (308.15 K, x1 = 0.7485) was 266 mPa·s, the viscosity (308.15 K, x1 = 0.9164) was 532 mPa·s and the viscosity (313.15 K, x1 = 0.1507) was 8.75 mPa·s. The viscosity (313.15 K, x1 = 0.3015) was 22 mPa·s, the viscosity (313.15 K, x1 = 0.4494) was 47.2 mPa·s and the viscosity (313.15 K, x1 = 0.594) was 86.1 mPa·s. The viscosity (313.15 K, x1 = 0.9164) was 386 mPa·s, the viscosity (313.15 K, x1 = 1) was 485 mPa·s and the viscosity (318.15 K, x1 = 0.3015) was 18.1 mPa·s. It also gave a viscosity (318.15 K, x1 = 0.594) of 69.1 mPa·s, a viscosity (318.15 K, x1 = 0.7485) of 150 mPa·s and a viscosity (318.15 K, x1 = 0.9164) of 285 mPa·s. For the same compound, the viscosity (318.15 K, x1 = 1) was 351 mPa·s, the viscosity (323.15 K, x1 = 0.1507) was 6.4 mPa·s and the viscosity (323.15 K, x1 = 0.3015) was 14.9 mPa·s. For the same compound, the viscosity (323.15 K, x1 = 0.4494) was 30.4 mPa·s, the viscosity (323.15 K, x1 = 0.594) was 57.2 mPa·s and the viscosity (323.15 K, x1 = 0.7485) was 117 mPa·s. It also gave a viscosity (323.15 K, x1 = 0.9164) of 210 mPa·s, a viscosity (323.15 K, x1 = 1) of 261 mPa·s and a viscosity (328.15 K, x1 = 0.1507) of 5.54 mPa·s. The viscosity (328.15 K, x1 = 0.3015) was 12.5 mPa·s, the viscosity (328.15 K, x1 = 0.4494) was 24.9 mPa·s and the viscosity (328.15 K, x1 = 0.594) was 46.8 mPa·s. For the same compound, the viscosity (328.15 K, x1 = 0.7485) was 91.6 mPa·s, the viscosity (328.15 K, x1 = 1) was 197 mPa·s and the viscosity (333.15 K, x1 = 0.3015) was 10.5 mPa·s. The viscosity (333.15 K, x1 = 0.7485) was 76.8 mPa·s, the viscosity (333.15 K, x1 = 0.9164) was 125 mPa·s and the viscosity (333.15 K, x1 = 1) was 152 mPa·s. The viscosity (338.15 K, x1 = 0.1507) was 4.24 mPa·s, the viscosity (338.15 K, x1 = 0.3015) was 8.87 mPa·s and the viscosity (338.15 K, x1 = 0.4494) was 17.2 mPa·s. For the same compound, the viscosity (338.15 K, x1 = 0.594) was 33.8 mPa·s, the viscosity (338.15 K, x1 = 0.9164) was 99 mPa·s and the viscosity (343.15 K, x1 = 0.1507) was 3.75 mPa·s. The viscosity (343.15 K, x1 = 0.3015) was 7.58 mPa·s, the viscosity (343.15 K, x1 = 0.4494) was 14.6 mPa·s and the viscosity (343.15 K, x1 = 0.594) was 29 mPa·s. For the same compound, the viscosity (343.15 K, x1 = 0.9164) was 79.2 mPa·s, the viscosity (343.15 K, x1 = 1) was 91.8 mPa·s and the viscosity (348.15 K, x1 = 0.1507) was 3.43 mPa·s. The viscosity (348.15 K, x1 = 0.3015) was 6.53 mPa·s, the viscosity (348.15 K, x1 = 0.4494) was 12.2 mPa·s and the viscosity (348.15 K, x1 = 0.7485) was 46.3 mPa·s. It also gave a viscosity (348.15 K, x1 = 0.9164) of 68 mPa·s and a viscosity (348.15 K, x1 = 1) of 77.5 mPa·s.
